# Laboratory results taken from PMC2912373, “Low-Density Lipoprotein Receptor-Related Protein 1 (LRP1) Mediates Neuronal Aβ42 Uptake and Lysosomal Trafficking” (PLoS ONE, 2010).
# How the values were obtained:
# N2a-mLRP4 cells [1] = assay: Co-localization of internalized FAM-Aβ42 with LysoTracker, confocal microscopy; format: cell-based, mouse
# Experimental: (§1) To determine whether internalized Aβ42 is accumulated over time, we performed continuous feeding experiments of FAM-Aβ42 in N2a-pcDNA3 and N2a-mLRP4 cells. The steady-state levels and localization of Aβ42 were determined by flow cytometry and confocal microscopy, respectively (Fig. 2). Cells were incubated with 500 nM FAM-Aβ42 at 37°C for 24, 48 or 72 h and the content of fluorescence per cell was quantified by FACS and presented as a percentage of the levels in N2a-pcDNA3 at each time point (Fig. 2A). […] Therefore, we analyzed the subcellular localization of internalized FAM-Aβ42 by confocal microscopy in N2a cells treated as before and analyzed co-localization with lysosomes. For the visualization of acidic organelles, a brief incubation with LysoTracker Red at the end of the experiment was included (Fig. 2B). After 24 h of incubation, a small amount of cell-associated Aβ42 can be detected in N2a-mLRP4 cells.
# (§2) Figure 2 Increased accumulation of intracellular Aβ42 within lysosomes in LRP1 minireceptor-expressing cells. A, increased Aβ42 accumulation in LRP1 minireceptor-expressing cells. N2a-mLRP4 and N2a-pcDNA3 cells were treated with 500 nM of FAM-Aβ42 at 37°C for 24, 48 and 72 h, and steady-state levels of intracellular Aβ42 were determined by flow cytometric analyses of pronase-treated cells as described in the Experimental Procedures. […] B, increased co-localization of intracellular Aβ42 and lysosomes in N2a-mLRP4 cells. N2a-pcDNA3 and N2a-mLRP4 cells were grown in glass chamber slides and treated with 500 nM of FAM-Aβ42 at 37°C for 24, 48 and 72 h. Lysosomes were labeled with LysoTracker 30 min before the end of each incubation. Cells were then fixed and analyzed by confocal microscopy.
# For the imaging experiments, stable N2a cells were plated into an 8-well chambered coverglass at 16,250 cells/cm^2 with one independent chambered coverglass for each time point, and cells were grown overnight. […] Cells were then fixed and analyzed by a confocal laser scanning microscope (Fluoview 500, Olympus) using a 40x objective lens. […]
# N2a-mLRP4 cells [2] = assay: Steady-state FAM-Aβ42 accumulation (continuous feeding), FACS; format: cell-based, mouse; conditions: for levels of FAM-Aβ42 in N2a-mLRP4 cells compared to N2a-pcDNA3 cells: 500 nM FAM-Aβ42, 37°C, n = 3
# Experimental: as §1, §2
# For quantification of Aβ uptake experiments, stable N2a cells were plated into 12-well plates at 16,250 cells/cm^2 and grown overnight. Similar to imaging assays, cells were washed twice with PBS and incubated for the indicated periods of time with pre-warmed internalization media containing 500 nM FAM -Aβ42. After incubation, cells were washed twice with PBS and non-enzymatically detached as before in 500 µL cell dissociation solution. Cells were sequentially washed once with 1 mL of cold internalization media and twice with 2 mL cold PFN. Cells were finally resuspended in PFN-1% PFA and analyzed by FACS as before. For MEF-1 and MEF-2 experiments, 5,000 cells/cm^2 were plated in 12-well plates the day before. Cells were then washed twice with PBS and incubated 4 h with pre-warmed internalization media containing 500 nM FAM-Aβ42. After completion of the incubation time, cells were processed by FACS analysis as described above for N2a cells.
# LRP1 knockdown was carried out in GT1-7 cells by siRNA transfection using Lipofectamine 2000 (Invitrogen, Carlslab, CA) and 120 nM of dsRNA duplex (Ambion, Austin, TX). Briefly, cells were plated in 6-well plates the day before transfection and grown overnight. Scrambled and LRP1 siRNA duplexes were generated according to the manufacturer's instruction and complexed with Lipofectamine 2000 as previously described. FAM-Aβ42 experiments were performed 72 h after siRNA transfection and analyzed as previously described for N2a cells. For clathrin heavy chain knockdown, shRNA lentiviruses were produced in the Viral Vectors Core facility at Washington University School of Medicine. In brief, 293T cells were transfected with pLKO.1-derived constructs together with the pHR'8.2ΔR and pCMV-VSV-G packaging systems as previously described. […]
substance,measurement,setting,value
FAM-Aβ42: FAM-Aβ42 peptide (23526) from Anaspec; amyloid-β 42 with carboxyfluorescein at the N-terminal region,co-localization of intracellular accumulated Aβ42 with LysoTracker,"N2a-mLRP4 cells [1]; 500 nM FAM-Aβ42, 37°C, 24, 48 and 72 h, N2a-mLRP4, increased over time",highly co-localized with LysoTracker
same,localization of Aβ42 into LysoTracker-positive organelles,"N2a-mLRP4 cells [1]; 500 nM FAM-Aβ42, 37°C, 48 and 72 h, both N2a-pcDNA3 and N2a-mLRP4 cells",increased localization
same,localization of cell-associated FAM-Aβ42 into acidic organelles (LysoTracker),"N2a-mLRP4 cells [1]; 500 nM FAM-Aβ42, 37°C, 24 h, 100 nM LysoTracker Red last 30 min, N2a-mLRP4",does not localize into acidic organelles
same,levels of FAM-Aβ42 in N2a-mLRP4 cells compared to N2a-pcDNA3 cells,"N2a-mLRP4 cells [2]; 24 h, FACS of pronase-treated cells",slight increase
same,levels of FAM-Aβ42 in N2a-mLRP4 cells compared to N2a-pcDNA3 cells,"N2a-mLRP4 cells [2]; 48 h, FACS of pronase-treated cells",twice the levels
same,levels of FAM-Aβ42 in N2a-mLRP4 cells compared to N2a-pcDNA3 cells,"N2a-mLRP4 cells [2]; 72 h, FACS of pronase-treated cells",twice the levels
same,cell-associated FAM-Aβ42 in N2a-mLRP4 cells compared to N2a-pcDNA3 cells,"N2a-mLRP4 cells [2]; 500 nM, 48 h, FACS, pronase-treated and untreated cells",increases
same,"FAM-Aβ42 uptake in clathrin knocked down cells compared to control, empty lentivirus","N2a-mLRP4 cells [2]; N2a-mLRP4, clathrin heavy chain shRNA lentivirus, 500 nM, 48 h, FACS of pronase-treated cells",twofold decrease
